Measurements published in patent publication US9737493B2, “Compositions and methods for modulating DNMT1 inhibitor activity” (University of Louisville Research Foundation, Inc., priority 2012, dated 2017).

Test system: U937 cells
Test: Flow cytometric detection of γ-H2AX
Type: cell-based, human
Settings: U937, 1 μM, 24 h
Description: FIG. 11: XB05 Induces DNA Damage in Malignant Cells. (A) Alkaline comet assays for detection of DNA damage for cells treated as indicated for 72 h. TBHP was a positive control for oxidative DNA damage. Decreased DNA fluorescence in nucleoid comet heads (arrows) and increased smearing of DNA into comet tails (asterisks) is indicated. Scale bar, 400 μm. Data shown are representative of at least two individual experiments for each cell line. (B) Western blot analysis for γ-H2AX and GAPDH (loading control) in whole cell extracts from cells treated with vehicle, UV irradiation (800 μJ, positive control for DSBs), or XB05 (1 μM for U937, 2 μM for A549) after 24 h. Images shown are representative of three individual experiments in each cell line. (C) Flow cytometric detection of γ-H2AX in cells treated as described in part B. Bar graph represents mean+/−SEM for 3 individual experiments in each cell line. Statistical comparison indicated significant differences between vehicle and XB05-treated groups in both cell lines (*p≦0.05).
Flow Cytometric Assays. Analyses were performed using a FACScalibur flow cytometer (BD Biosciences, Mountain View, Calif.) and FlowJo software (Tree Star, Inc., Ashland, Oreg.). […] Cells were then washed twice with PBS, re-suspended at a density of 1×10^6 cells/mL in PBS and analyzed by flow cytometry.

**Q.** With `CCCCCC(O)C#CC(F)(F)Br` (stereo not shown) [XB05] as the molecule, how does the “increase in γ-H2AX staining compared to vehicle-treated controls” value read?
**A.** 4.5 fold
